Values quoted from earlier work in patent US6542858B1, “Pharmacokinetic-based drug design tool and method” (Lion Bioscience AG, priority 1998, dated 2003).

What was measured:
[1] = Plasma Kinetics; mass model parameter

Nc1nc2c(ncn2COC(CO)CO)c(=O)[nH]1.[Na] [Gancyclovir, 9-(1,3-dihydroxy-2-propoxymethyl)guanine, monosodium salt]
k21 [1]: 0.670 | in vivo biotransformation: no in vivo biotransformation | absorption (in vivo): poorly absorbed
